From US20180216124A1, “METHOD OF PRODUCING PLASTID TRANSFORMANTS” (HONDA MOTOR CO., LTD., priority 2015, published 2018) come the findings set out here.

Assay [1] relates to switchgrass calluses. The assay is described as follows: Sensitivity of switchgrass calluses to drugs: callus growth on PVC medium. The format is cell-based. How it is done:
(§1) Skins of mature seeds of switchgrass variety “Alamo” were removed by 60% (v/v) sulfate treatment, and a fungicide for seeds was used for sterilization. […] The seeds were cultured for a few months in the dark at 28° C. Then, grown calluses were classified as independent strains for each derived seed. Strains in which a compact callus expected to have a regeneration ability was grown were selected and cultured.
(§2) In order to develop a new screening method that is appropriate for plastid transformation, the calluses of the regeneration strains prepared in the above <1> were used to examine sensitivity of wild type plant cells to various drugs.

In assay [2] the test system is switchgrass calluses. The assay is described as follows: Sensitivity of switchgrass calluses to drugs: plant (shoot) regeneration on PVS medium. Conditions: switchgrass callus on PVS medium. The format is cell-based. How it is done: as §1, §2
The test system of assay [3] is wild type switchgrass calluses. The note with it: 28° C. How it is done:
In the sodium nitrite screening, in order to determine a screening concentration more effectively, wild type switchgrasses were cultured under sodium nitrite conditions of different concentrations, and the sensitivity of wild type cells to sodium nitrite was examined.
Specifically, a mass of 14 switchgrass calluses remained for each plate on PVC media and PVS media containing sodium nitrite having a concentration of 0, 0.25, 0.5, 0.6, 0.7, 0.8, 0.9, or 1.0 g/L, and three plates of each of which were prepared for each concentration condition. The PVC media were cultured in the dark at 28° C. and the PVS media were cultured under light at 28° C. for 4 weeks. After culture, the number of grown calluses was measured in the PVC media, and the number of calluses from which plants were regenerated was measured in the PVS media. The growth rate and the regeneration rate were calculated.

Assay [4] concerns wild type of rice variety Nipponbare. The note with it: MS-NK medium containing sodium nitrite 400 mg/L. The method, then: PSR1 genes were introduced into plastids of rice variety Nipponbare and rice variety Koshihikari and transformants were screened using sodium nitrite. Specifically, it was performed as follows. An MS-NK medium (Nishimura et al., Nature Protocols, 2006, Vol. 1, p. 2796-2802) used as a regeneration medium contained nitrate nitrogen, originally.

Where [5] appears, read: PVC media, dark, 4 weeks (FIG. 2A).
Where [6] appears, read: PVS media, light, 4 weeks (FIG. 2B).

`CCc1cc(C)cc(CC)c1-c1c(OC(=O)C(C)(C)C)n2n(c1=O)CCOCC2` [Pinoxaden]: the “Callus growth: supression concentration” value in the assay with switchgrass calluses [1] is “(>1.0 μM)”.

With `C[n+]1ccc(-c2cc[n+](C)cc2)cc1` [Methylviologen], the “Callus growth: supression concentration” value in the assay on switchgrass calluses [1] was “(>1.0 μM)”. Besides, the “Shoot regeneration: supression concentration” value (“Shoot regeneration” for short) with switchgrass calluses [2] is “(>1.0 μM)”.

Take `CN[C@@H]1[C@@H](O)[C@@H](O[C@@H]2[C@@H](O)[C@H](O[C@H]3O[C@H]([C@@H](C)O)[C@@H](O)[C@H](O)[C@H]3N)[C@@H](N)C[C@H]2N)OC[C@]1(C)O` [G418]: the “Callus growth: supression concentration” value with switchgrass calluses [1] is on record as “(>25 mg/L)”. The “Shoot regeneration” value in the assay on switchgrass calluses [2] is “(>25 mg/L)”.

Consider `NC[C@H]1O[C@H](O[C@H]2[C@H](O)[C@@H](O[C@H]3O[C@H](CO)[C@@H](O)[C@H](N)[C@H]3O)[C@H](N)C[C@@H]2N)[C@H](O)[C@@H](O)[C@@H]1O` [Kanamycin], for which, in the assay with switchgrass calluses [1], the “Callus growth: supression concentration” value is recorded as “(>200 mg/L)”. In the assay on switchgrass calluses [2], the “Shoot regeneration” value is given as “(>100 mg/L)”.

As to `O=C(O)CNCP(=O)(O)O` [Glyphosate], the “Callus growth: supression concentration” value in the assay with switchgrass calluses [1] is “(>0.1 mM)”. Further, the “Shoot regeneration” value in the assay on switchgrass calluses [2] was “(>0.1 mM)”.

As for `CCCC(=NOCC)C1=C(O)CC(C2CCCSC2)CC1=O` (centres unmarked) [Cycloxydim], the “Callus growth: supression concentration” value in the assay with switchgrass calluses [1] is “(>1.5 μM)”. For the same molecule, the “Shoot regeneration” value in the assay with switchgrass calluses [2] is on record as “(>0.1 μM)”.

On to `CC(Oc1ccc(Oc2ncc(C(F)(F)F)cc2Cl)cc1)C(=O)O` (centres unmarked) [Haloxyfop], for which the “Callus growth: supression concentration” value in the assay with switchgrass calluses [1] is on record as “(>1.0 μM)”.

As for Bleocin, the “Callus growth: supression concentration” value with switchgrass calluses [1] is “(>25 mg/L)”. For the same molecule, the “Shoot regeneration” value in the assay with switchgrass calluses [2] is on record as “(>10 mg/L)”.

Turning to `[H]/N=C(/N)N[C@H]1[C@H](O)[C@@H](O)[C@H](O[C@@H]2O[C@@H](C)[C@](O)(C=O)[C@H]2O[C@@H]2O[C@@H](CO)[C@H](O)[C@@H](O)[C@@H]2NC)[C@@H](N/C(N)=N\[H])[C@@H]1O` [Streptomycin], in the assay on switchgrass calluses [2], the “Shoot regeneration” value is listed as “(>400 mg/L)”.

As for `O=NO` [Sodium nitrite], in assay [3] (setting [5]), the “Concentration at which callus growth was completely suppressed” value is at least 0.9 g/L and the “Concentration at which callus growth was sharply reduced” value was 0.7 g/L. For the same molecule, in assay [3] (setting [6]), the “Concentration at which plant regeneration was completely suppressed” value is 1.0 g/L and the “Concentration at which plant regeneration was sharply reduced” value turned out to be 0.8 g/L. The “Callus growth: supression concentration” value in the assay on switchgrass calluses [1] is listed as “(>800 mg/L)”. For the same molecule, the “Shoot regeneration” value in the assay on switchgrass calluses [2] is given as “(>800 mg/L)”. Further, the “Regeneration ability of wild type rice” value in assay [4] is recorded as “had a regeneration ability”.

As for `CN(C)[C@@H]1C(O)=C(C(N)=O)C(=O)[C@@]2(O)C(O)=C3C(=O)c4c(O)cccc4[C@@](C)(O)[C@H]3C[C@@H]12` [Tetracycline], the “Callus growth: supression concentration” value with switchgrass calluses [1] is “(>40 mg/L)”. Further, the “Shoot regeneration” value in the assay on switchgrass calluses [2] was “(>60 mg/L)”.

As for `C[C@@H](Oc1ccc(Oc2ncc(Cl)cc2F)cc1)C(=O)O` [Clodinafop], the “Callus growth: supression concentration” value in the assay with switchgrass calluses [1] is listed as “(>1.0 μM)”.

Turning to `O=C(N[C@H](CO)[C@H](O)c1ccc([N+](=O)[O-])cc1)C(Cl)Cl` [Cloramphenicol], the “Callus growth: supression concentration” value in the assay with switchgrass calluses [1] is “(>30 mg/L)”. Besides, the “Shoot regeneration” value in the assay on switchgrass calluses [2] is recorded as “(>15 mg/L)”.

Consider `CCCCOC(=O)C(C)Oc1ccc(Oc2ccc(C(F)(F)F)cn2)cc1` (centres unmarked) [Fluazifop-butyl], for which, in the assay with switchgrass calluses [1], the “Callus growth: supression concentration” value is on record as “(>1.0 μM)”. In addition, the “Shoot regeneration” value in the assay on switchgrass calluses [2] is “(>0.1 μM)”.
